Here are results for 73 sequences from the supplement of paper PMC11208160.
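Note: IS621 recombinase and bridge RNA in Escherichia coli cells.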

The data set can be described thus: recombinant barcode read abundance after kanamycin selection (control-corrected) (log10(CPM+1)); higher = more efficient recombination; sequences stand for … in AGTGCAGAGAAAATCGGCCAGTTTTCTCTGCCTGCAGTCCGCATGCCGT…AGATTTATGCAGCGGACTGCCTTTCTCCCAAAGTGATAAACCGGACAGTATCATGGACCGGTTTTCCCGGTAATCCGTATTTGCAAGGTTGGTTTCACT; site = the 11-nt target. As for the experimental part:
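Pooled E. coli target-specificity screen for the IS621 bridge recombinase. Each library plasmid pairs an 11-nt target (CT core) with a bridge RNA whose target-binding loop (9-nt LTG + 4-nt RTG) is reprogrammed; the rest of the 177-nt WT IS621 bridge RNA scaffold is fixed. The plasmid is co-electroporated with a WT donor plasmid; recombinase is induced with 0.1 mM IPTG and recombinants are selected on kanamycin. Recombinant barcodes are sequenced, converted to CPM, averaged over two biological replicates and corrected by the unselected control CPM. Molecule = full bridge RNA written as DNA: LTG = specificity nt 1-9, RTG = reverse complement of specificity nt 8-11, in the WT scaffold.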
Take “ACAATCTCTTGGGTTCTAACCTGTTGCTC (site CACCAGACTTG)”: the “recombinant barcode read abundance (log10)” value was determined as 0.066.
With “ACACACCCTTGGGTTCTAACCTGTTGCGG (site ACACACCCTCC)”, the “recombinant barcode read abundance (log10)” value was found to be 2.53.
As for “ACACACCCTTGGGTTCTAACCTGTTGCGG (site ACGCACGCTCC)”, the “recombinant barcode read abundance (log10)” value turned out to be 0.0353.
For “ACACGAGCTTGGGTTCTAACCTGTTGCAG (site ACACGAGCTCT)” the value was 1.3; for “ACACGAGCTTGGGTTCTAACCTGTTGCAG (site TGCGATACTAA)”, 0.326; for “ACACGGACTTGGGTTCTAACCTGTTGCTA (site ACACGGACTTA)”, 1.38.
For the sequence “ACACGGACTTGGGTTCTAACCTGTTGCTA (site GTGGTACCTAT)”, the “recombinant barcode read abundance (log10)” value turned out to be 0.0282.
The result for “ACACTCCCTTGGGTTCTAACCTGTTGCCT (site AAGCTCCCTAG)” reads 0.415.
For “ACACTCCCTTGGGTTCTAACCTGTTGCCT (site ACACTCCCTAG)” the value was 0.294; for “ACACTCCCTTGGGTTCTAACCTGTTGCTG (site ACACACTCTCA)”, 0.104.
For “ACACTCCCTTGGGTTCTAACCTGTTGCTG (site ACACTCCCTCA)” the value was 2.14; for “ACACTGTCTTGGGTTCTAACCTGTTGCGG (site ACAATGTCTCC)”, 0.0253.
Take “ACACTGTCTTGGGTTCTAACCTGTTGCGG (site ACACTGTCTCC)”: the “recombinant barcode read abundance (log10)” value amounted to 1.49.
As to “ACACTGTCTTGGGTTCTAACCTGTTGCGG (site ACAGTGTCTCC)”, the “recombinant barcode read abundance (log10)” value stood at 0.379.
Take “ACACTGTCTTGGGTTCTAACCTGTTGCGG (site ACATTGTCTCC)”: the “recombinant barcode read abundance (log10)” value was determined as 0.429.
As to “ACAGAGGCTTGGGTTCTAACCTGTTGCCG (site ACAGAGGCTCG)”, the “recombinant barcode read abundance (log10)” value is 1.12.
The result for “ACAGAGGCTTGGGTTCTAACCTGTTGCCG (site ACTCAGGCTCG)” reads 0.155.
The result for “ACAGCCGCTTGGGTTCTAACCTGTTGCCT (site ACAGACGCTAG)” reads 0.221.
Turning to “ACAGCCGCTTGGGTTCTAACCTGTTGCCT (site ACAGCCGCTAG)”, the “recombinant barcode read abundance (log10)” value is 1.46.
For “ACAGCCGCTTGGGTTCTAACCTGTTGCCT (site ACAGGCGCTAG)” the value was 0.108; for “ACAGCCGCTTGGGTTCTAACCTGTTGCCT (site ACAGTCGCTAG)”, 0.118; for “ACAGCTTCTTGGGTTCTAACCTGTTGCCT (site ACAGCTACTAG)”, 0.0838.
“ACAGCTTCTTGGGTTCTAACCTGTTGCCT (site ACAGCTTCTAG)”: the “recombinant barcode read abundance (log10)” value came to 1.53.
The result for “ACAGGCGCTTGGGTTCTAACCTGTTGCCT (site ACAGACGCTAG)” reads 0.858; that for “ACAGGCGCTTGGGTTCTAACCTGTTGCCT (site ACAGCCGCTAG)”, 0.617.
The result for “ACAGGCGCTTGGGTTCTAACCTGTTGCCT (site ACAGGCGCTAG)” reads 0.673; that for “ACAGGCGCTTGGGTTCTAACCTGTTGCCT (site ACAGTCGCTAG)”, 0.0488.
The result for “ACAGGTGCTTGGGTTCTAACCTGTTGCCT (site ACAGGTGCTAG)” reads 1.98; that for “ACAGGTGCTTGGGTTCTAACCTGTTGCCT (site ACATGTGCTAG)”, 0.0807.
As to “ACAGTAGCTTGGGTTCTAACCTGTTGCTG (site ACAATAGCTCA)”, the “recombinant barcode read abundance (log10)” value came out at 0.181.
Take “ACAGTAGCTTGGGTTCTAACCTGTTGCTG (site ACACTAGCTCA)”: the “recombinant barcode read abundance (log10)” value came to 0.0586.
The result for “ACAGTAGCTTGGGTTCTAACCTGTTGCTG (site ACAGTAGCTCA)” reads 1.87.
The result for “ACAGTAGCTTGGGTTCTAACCTGTTGCTG (site ACATTAGCTCA)” reads 0.0402; that for “ACAGTCGCTTGGGTTCTAACCTGTTGCCT (site ACAGACGCTAG)”, 0.229.
The result for “ACAGTCGCTTGGGTTCTAACCTGTTGCCT (site ACAGCCGCTAG)” reads 0.0854.
For the sequence “ACAGTCGCTTGGGTTCTAACCTGTTGCCT (site ACAGGCGCTAG)”, the “recombinant barcode read abundance (log10)” value stood at 0.
For “ACAGTCGCTTGGGTTCTAACCTGTTGCCT (site ACAGTCGCTAG)” the value was 1.4.
The result for “ACATAAGCTTGGGTTCTAACCTGTTGCCT (site ACATAAGCTAG)” reads 1.1.
For “ACATAAGCTTGGGTTCTAACCTGTTGCCT (site CATCGGACTCT)” the value was 0.116; for “ACATATACTTGGGTTCTAACCTGTTGCTT (site ACATATACTAA)”, 0.0772.
Regarding “ACATATACTTGGGTTCTAACCTGTTGCTT (site CGTAGCCCTCC)”, the “recombinant barcode read abundance (log10)” value was found to be 0.125.
“ACATGAACTTGGGTTCTAACCTGTTGCAT (site ACATGAACTAT)”: the “recombinant barcode read abundance (log10)” value was 1.38.
For “ACATGAACTTGGGTTCTAACCTGTTGCAT (site ACATGCACTAT)” the value was 0.111; for “ACATGAACTTGGGTTCTAACCTGTTGCAT (site ACATGGACTAT)”, 0.141.
The result for “ACATGAACTTGGGTTCTAACCTGTTGCAT (site ACATGTACTAT)” reads 0.0493; that for “ACATGACCTTGGGTTCTAACCTGTTGCTT (site ACATGACCTAA)”, 0.223; that for “ACATGACCTTGGGTTCTAACCTGTTGCTT (site ATATGAGCTAA)”, 0.0302.
For the sequence “ACATGGGCTTGGGTTCTAACCTGTTGCCG (site ACATGGGCTCG)”, the “recombinant barcode read abundance (log10)” value was 0.695.
The result for “ACATGGGCTTGGGTTCTAACCTGTTGCCG (site ACATGTGCTCT)” reads 0.266; that for “ACATGTCCTTGGGTTCTAACCTGTTGCGT (site ACATGTCCTAA)”, 0.141; that for “ACATGTCCTTGGGTTCTAACCTGTTGCGT (site ACATGTCCTAC)”, 2.39.
The result for “ACATGTCCTTGGGTTCTAACCTGTTGCGT (site ACATGTCCTAG)” reads 0.23; that for “ACATGTCCTTGGGTTCTAACCTGTTGCGT (site ACATGTCCTAT)”, 1.48.
The result for “ACATGTGCTTGGGTTCTAACCTGTTGCAG (site ACATGGGCTCG)” reads 0.0637; that for “ACATGTGCTTGGGTTCTAACCTGTTGCAG (site ACATGTGCTCT)”, 1.72; that for “ACATTAGCTTGGGTTCTAACCTGTTGCAA (site ACATTAGCTTT)”, 0.609.
As to “ACATTAGCTTGGGTTCTAACCTGTTGCAA (site ACTTTAGCTCT)”, the “recombinant barcode read abundance (log10)” value amounted to 0.0541.
For “ACCAAATCTTGGGTTCTAACCTGTTGCTA (site ACCAAATCTCG)” the value was 0.356; for “ACCAAATCTTGGGTTCTAACCTGTTGCTA (site ACCAAATCTTA)”, 0.23; for “ACCAAGTCTTGGGTTCTAACCTGTTGCGT (site ACCAAGTCTAC)”, 1.98.
For “ACCAAGTCTTGGGTTCTAACCTGTTGCGT (site ACCAAGTCTGC)” the value was 0.326.
“ACCAATACTTGGGTTCTAACCTGTTGCCT (site ACCAATACTAG)”: the “recombinant barcode read abundance (log10)” value is 0.0309.
For “ACCAATACTTGGGTTCTAACCTGTTGCCT (site ACCAATCCTAG)” the value was 0.122; for “ACCAATACTTGGGTTCTAACCTGTTGCCT (site ACCAATGCTAG)”, 0.939; for “ACCAATACTTGGGTTCTAACCTGTTGCCT (site ACCAATTCTAG)”, 0.0138.
Turning to “ACCAATGCTTGGGTTCTAACCTGTTGCCT (site ACCAATACTAG)”, the “recombinant barcode read abundance (log10)” value was found to be 0.182.
The result for “ACCAATGCTTGGGTTCTAACCTGTTGCCT (site ACCAATCCTAG)” reads 0.136; that for “ACCAATGCTTGGGTTCTAACCTGTTGCCT (site ACCAATGCTAG)”, 0.0431; that for “ACCAATGCTTGGGTTCTAACCTGTTGCCT (site ACCAATTCTAG)”, 0.163.
Take “ACCAATTCTTGGGTTCTAACCTGTTGCCT (site ACCAATACTAG)”: the “recombinant barcode read abundance (log10)” value is 0.059.
As to “ACCAATTCTTGGGTTCTAACCTGTTGCCT (site ACCAATCCTAG)”, the “recombinant barcode read abundance (log10)” value is 0.111.
Regarding “ACCAATTCTTGGGTTCTAACCTGTTGCCT (site ACCAATGCTAG)”, the “recombinant barcode read abundance (log10)” value was 0.0727.
For “ACCAATTCTTGGGTTCTAACCTGTTGCCT (site ACCAATTCTAG)” the value was 0.483.
